Like-named read-outs stand apart in the source and are kept apart here. Marks after values point to notes of the source that are not given here.
Tests used:
[1] = system: MDA-MB-23; experiment: SRB antiproliferative assay; assay type: cell-based; details: Homo sapiens, MDA-MB-23
Source text: (§1) The cells were passaged using Trypsin (Gibco).

[2] = system: MMRU; experiment: SRB antiproliferative assay; assay type: cell-based; details: Homo sapiens
Source text: as §1

[3] = Preliminary toxicology, subcutaneous injection for 14 days; assay type: in vivo, CD-1 female mice; details: CD-1 female mice; 80 mg/kg/day s.c. 14 days
Protocol: The toxicological effects of CLT, and compounds 28, 30 and 31 were tested in CD-1 female mice. A dose of 80 mg/kg/day was given to each mouse via subcutaneous injection for a period of 14 days. Preliminary toxicological data was determined by measuring body weight, gross pathology of organs blood chemistry and histology. The vehicle used was DMF 12%+2% Tween 20 88%.

[4] = system: SU.86.86 pancreatic adenocarcinoma; experiment: Mouse xenograft tumor growth; assay type: in vivo, nude mice; details: SU.86.86 pancreatic adenocarcinoma mouse xenograft
[5] = system: panel of human cancer cells; experiment: In vitro screening, SRB, panel of 60 human cancer cell lines; assay type: cell-based
[6] = system: K-562; experiment: In-Vitro Testing SRB panel: Leukemia; assay type: cell-based
[7] = system: RPMI-8226; experiment: In-Vitro Testing SRB panel: Leukemia; assay type: cell-based; details: RPMI-8226, 48 h
[8] = system: ROP-62; assay type: cell-based; details: 48 h
[9] = system: ROP-92; assay type: cell-based; details: 48 h
[10] = system: NCI-H23; assay type: cell-based; details: NCI-H23, 48 h
[11] = system: HT29; experiment: In-Vitro Testing SRB panel: Colon Cancer; assay type: cell-based
[12] = system: KM12; experiment: In-Vitro Testing SRB panel: Colon Cancer; assay type: cell-based; details: KM12, 48 h
[13] = Homo sapiens, read-out: LC50 (the source's name)

Structure (SMILES): O=C(c1ccc([N+](=O)[O-])cc1)N1Cc2ccccc2C(c2ccccc2Cl)c2ccccc21 (stereo not shown) [Compound 28, N-(4′-Nitrobenzoyl)-11-(2′-chlorophenyl)-5,6-dihydro-11H-dibenz[b,e]azepine]
- IC50 [1]: 0.5 µM
- IC50 ([2]; MMRU (Melanoma), 5% FCS/5 day incubation): 0.2 µM
- IC50 ([2]; MMRU, 5% FCS/3 days): < 1.25 µM
- Body Weight Change [3]: 107%
- Liver Weight [3]: 1.51 ± 0.08^c g
- RBC [3]: 8.1 ± 0.6 10^6/mm^3
- WBC [3]: 7.5 ± 0.8 10^3/mm^3
- WBC, RBC, BUN and creatine levels [3]: no differences were found
- tumor growth [4]: significantly inhibited tumor growth
- activity against the human cell panel [5]: exhibited activity against the human cell panel
- GI50 ([6]; Homo sapiens, K562, 48 h): 0.394 µM
- CC50 ([6]; Homo sapiens, K562, K-562, 48 h, read-out: LC50 (the source's name)): > 100 µM
- TGI ([6]; K-562, 48 h): >1.00E−04 Molar
- Percent Growth ([6]; K-562, log10 conc −4.0 Molar, 48 h): 26%
- Percent Growth ([6]; K-562, log10 conc −5.0 Molar, 48 h): 25%
- Percent Growth ([6]; K-562, log10 conc −6.0 Molar, 48 h): 38%
- Percent Growth ([6]; K-562, log10 conc −7.0 Molar, 48 h): 68%
- Percent Growth ([6]; K-562, log10 conc −8.0 Molar, 48 h): 82%
- GI50 ([7]; Homo sapiens): 0.522 µM
- CC50 [7, 13]: > 100 µM
- TGI [7]: >1.00E−04 Molar
- Percent Growth ([7]; log10 conc −4.0 Molar): 12%
- Percent Growth ([7]; log10 conc −5.0 Molar): 36%
- Percent Growth ([7]; log10 conc −6.0 Molar): 46%
- Percent Growth ([7]; log10 conc −7.0 Molar): 61%
- Percent Growth ([7]; log10 conc −8.0 Molar): 74%
- GI50 ([8]; Homo sapiens): 13.1 µM
- CC50 ([8]; Homo sapiens, ROP-62, read-out: LC50 (the source's name)): > 100 µM
- TGI ([8]; ROP-62): >1.00E−04 Molar
- Percent Growth ([8]; ROP-62, log10 conc −4.0 Molar): 38%
- Percent Growth ([8]; ROP-62, log10 conc −5.0 Molar): 52%
- Percent Growth ([8]; ROP-62, log10 conc −6.0 Molar): 60%
- Percent Growth ([8]; ROP-62, log10 conc −7.0 Molar): 89%
- Percent Growth ([8]; ROP-62, log10 conc −8.0 Molar): 91%
- GI50 ([9]; Homo sapiens): 7.51 µM
- CC50 ([9]; Homo sapiens, ROP-92, read-out: LC50 (the source's name)): > 100 µM
- TGI ([9]; ROP-92): >1.00E−04 Molar
- Percent Growth ([9]; ROP-92, log10 conc −4.0 Molar): 19%
- Percent Growth ([9]; ROP-92, log10 conc −5.0 Molar): 46%
- Percent Growth ([9]; ROP-92, log10 conc −6.0 Molar): 79%
- Percent Growth ([9]; ROP-92, log10 conc −7.0 Molar): 104%
- Percent Growth ([9]; ROP-92, log10 conc −8.0 Molar): 100%
- GI50 ([10]; Homo sapiens): 1.61 µM
- CC50 [10, 13]: > 100 µM
- TGI [10]: >1.00E−04 Molar
- Percent Growth ([10]; log10 conc −4.0 Molar): 41%
- Percent Growth ([10]; log10 conc −5.0 Molar): 43%
- Percent Growth ([10]; log10 conc −6.0 Molar): 52%
- Percent Growth ([10]; log10 conc −7.0 Molar): 93%
- Percent Growth ([10]; log10 conc −8.0 Molar): 100%
- TGI ([11]; HT29, 48 h): >1.00E−04 Molar
- Percent Growth ([11]; HT29, log10 conc −4.0 Molar, 48 h): 27%
- Percent Growth ([11]; HT29, log10 conc −5.0 Molar, 48 h): 27%
- Percent Growth ([11]; HT29, log10 conc −6.0 Molar, 48 h): 38%
- Percent Growth ([11]; HT29, log10 conc −7.0 Molar, 48 h): 78%
- Percent Growth ([11]; HT29, log10 conc −8.0 Molar, 48 h): 86%
- GI50 ([11]; Homo sapiens, HT-29, 48 h): 0.505 µM
- CC50 ([11]; Homo sapiens, HT-29, HT29, 48 h, read-out: LC50 (the source's name)): > 100 µM
- GI50 ([12]; Homo sapiens): 0.765 µM
- CC50 [12, 13]: > 100 µM
- TGI [12]: >1.00E−04 Molar

From patent US6992079B2, “Substituted 11-phenyl-dibenzazepine compounds useful for the treatment or prevention of diseases characterized by abnormal cell proliferation” (President Fellows of Harvard College, priority 1997, dated 2006)
